Measured values from patent publication US6825230B2, “Spiro and dispiro 1,2,4-trixolane antimalarials” (Medicines for Malaria Venture MMV, priority 2002, dated 2004).
Values after ≈ are worked out from the molar mass of the structure shown. Read-outs that look alike come from different tables or passages of the source.

What was measured:
[1] = test system: ANKA strain of P. berghei; assay: Single dose STI in vivo screen in infected mice; design: species or system Plasmodium berghei; details: for Survival (days) 10 mg/kg po: single 10 mg/kg po in 3% ethanol and 7% Tween 80; for Survival (days) 10 mg/kg po / Survival (days) 10 mg/kg SSV po / Survival (days) 10 mg/kg sc: untreated 6-7 days; for Activity (%) 10 mg/kg po: single 10 mg/kg po in 3% ethanol and 7% Tween 80 on day 1 post-infection; for Activity (%) 10 mg/kg po / Activity (%) 10 mg/kg SSV po / Activity (%) 10 mg/kg sc: percent reduction in parasitemia on day 3; for Survival (days) 10 mg/kg SSV po: single 10 mg/kg po in SSV; for Activity (%) 10 mg/kg SSV po: single 10 mg/kg po in standard suspending vehicle (SSV) on day 1 post-infection; for Survival (days) 10 mg/kg sc: single 10 mg/kg sc in 3% ethanol and 7% Tween 80; for Activity (%) 10 mg/kg sc: single 10 mg/kg sc in 3% ethanol and 7% Tween 80 on day 1 post-infection
Experimental: In the single dose STI in vivo screen, Moro SPF or NMRI mice infected with the ANKA strain of P. berghei (groups of three mice) were treated on day one post-infection with trioxolanes dissolved or suspended in 3% ethanol and 7% Tween 80. […] SSV consists of 0.5% w/v CMC, 0.5% v/v benzyl alcohol, 0.4% v/v Tween 80, and 0.9% w/v sodium chloride in water. Antimalarial activity was measured by percent reduction in parasitemia on day three post-infection and survival times compared to an untreated control group. Survival to day 30 post-infection is considered to be a cure. […] Other factors influencing antimalarial activity include the stability of carbon radicals formed by β-scission subsequent to the initial electron transfer to the peroxide bond and the influence of steric effects remote from the peroxide bond on the interactions between carbon radicals and potential drug targets.
Moro NMRI male mice (Fu Albino specific pathogen free) weighing 18±2 g were infected intravenously (i.v.) with 2×10^7 P. berghei ANKA strain-infected erythrocytes from donor mice on day 0 of the experiment. From donor mice with circa 30% parasitemia, heparinized blood was taken and diluted in physiological saline to 10^8 parasitized erythrocytes per ml. An aliquot (0.2 ml) of this suspension was injected i.v. into experimental and control groups of mice. […] Throughout the experiments, mice were kept in groups of three or five animals in Makrolon type II cages in an air-conditioned animal room at 22 to 23° C.
They were administered per os (p.o.) in a total volume of 0.01 ml per gram of mouse. The activity of the compound was determined by a variety of methods outlined in subsequent sections. Survival time was also recorded, and survival to day 30 post-infection was considered to be a cure.

[2] = test system: chloroquine-sensitive NF54 strain of P. falciparum; assay: In vitro antimalarial semiautomated microdilution assay ([3H]-hypoxanthine incorporation), NF54 strain; type: cell-based, Plasmodium falciparum; details: Plasmodium falciparum
Experimental: (§1) Various OZ compounds were tested by the semiautomated microdilution assay against intraerythrocytic forms of Plasmodium falciparum derived from asynchronous stock cultures.
(§2) Fifty percent inhibitory concentration (IC50) were estimated by Logit regression analysis.

[3] = test system: chloroquine-resistant K1 strain of P. falciparum; assay: In vitro antimalarial semiautomated microdilution assay ([3H]-hypoxanthine incorporation), K1 strain; type: cell-based, Plasmodium falciparum; details: Plasmodium falciparum
Experimental: as §1, §2

[4] = NF54, 72 h, read-out: IC50 (ng/ml) NF54, chloroquine-sensitive NF54 strain, 72 h incubation
[5] = K1, 72 h, read-out: IC50 (ng/ml) K1, chloroquine-resistant K1 strain, 72 h incubation

| Structure (SMILES) | Survival (days) 10 mg/kg po [1] | Activity (%) 10 mg/kg po [1] | Survival (days) 10 mg/kg SSV po [1] | Activity (%) 10 mg/kg SSV po [1] | Survival (days) 10 mg/kg sc [1] | Activity (%) 10 mg/kg sc [1] | IC50 [2, 4] [ng/mL] | IC50 [3, 5] [ng/mL] | IC50 ([2]; chloroquine-sensitive NF54 strain, 72 h incubation, read-out: IC50 (ng/ml) NF54) [ng/mL] | IC50 ([3]; chloroquine-resistant K1 strain, 72 h incubation, read-out: IC50 (ng/ml) K1) [ng/mL] |
| --- | --- | --- | --- | --- | --- | --- | --- | --- | --- | --- |
| O=C(CN1C(=O)c2ccccc2C1=O)N1CCC2(CC1)OOC1(O2)C2CC3CC(C2)CC1C3 (stereo not shown) [OZ93, Adamantane-2-spiro-3′-8′-(phthalimidoacetyl)-1′,2′,4′-trioxa-8′-azaspiro[4.5]decane] | 6.7 days | 57% | 6.0 days | 3% | 13.3 days | 100% | 0.92 (≈ 2.03 nM) | 3.3 (≈ 7.29 nM) | – | – |
| c1ccc2c(c1)-c1ccccc1C21OOC2(O1)C1CC3CC(C1)CC2C3 (stereo not shown) [OZ94, Adamantane-2-spiro-3′-1′,2′,4′-trioxolane-5′-spiro-9″-fluorene] | 6.0 days | 21% | 5.7 days | 0% | 5.3 days | 11% | 28 (≈ 80.8 nM) | 57 (≈ 165 nM) | – | – |
| O=[N+]([O-])c1ccc(C2(c3ccccc3)OOC3(O2)C2CC4CC(C2)CC3C4)cc1 (stereo not shown) [OZ95, Adamantane-2-spiro-3′-5′-(4′-nitrophenyl)-5′-phenyl-1′,2′,4′-trioxolane] | 6.0/6.0/6.0 days | 31% | 6.0/6.0/6.0 days | 0% | 6.0/6.0/6.0 days | 49% | 1.3 (≈ 3.3 nM) | 2.8 (≈ 7.12 nM) | – | – |
| O=[N+]([O-])c1cc(C2(c3ccc(Cl)c([N+](=O)[O-])c3)OOC3(O2)C2CC4CC(C2)CC3C4)ccc1Cl (stereo not shown) [OZ96, Adamantane-2-spiro-3′-5′,5′-bis(4′-chloro-3′-nitrophenyl)-1′,2′,4′-trioxolane] | 5.7 days | 12% | 5.7 days | 14% | 5.3 days | 19% | > 10 | 8.4 (≈ 16.6 nM) | – | – |
| O=C1c2ccccc2C(=O)N1CC1(c2ccccc2)CCC2(CC1)OOC1(O2)C2CC3CC(C2)CC1C3 (stereo not shown) [OZ97] | 6.7 days | 59% | 5.3 days | 2% | 7.0 days | 66% | 1.8 (≈ 3.6 nM) | 2.2 (≈ 4.4 nM) | – | – |
| COC(=O)C1(c2ccccc2)CCC2(CC1)OOC1(O2)C2CC3CC(C2)CC1C3 (stereo not shown) [OZ98] | 6.3 days | 72% | 5.3 days | 11% | 7.3 days | 77% | 0.9 (≈ 2.26 nM) | 2.3 (≈ 5.77 nM) | – | – |
| O=C(O)C1(c2ccccc2)CCC2(CC1)OOC1(O2)C2CC3CC(C2)CC1C3 (stereo not shown) [OZ99] | 6.3 days | 30% | 5.7 days | 40% | 6.3 days | 36% | 27 (≈ 70.2 nM) | 77 (≈ 200 nM) | – | – |
| CC(=O)Nc1ccc(S(=O)(=O)N2CCC3(CC2)OOC2(O3)C3CC4CC(C3)CC2C4)cc1 (stereo not shown) [OZ104, Adamantane-2-spiro-3′-8′-[[4-(acetylamino)phenyl]sulfonyl]-1′,2′,4′-trioxa-8′-azaspiro[4.5]decane] | 6.3 days | 56% | 5.7 days | 0% | 12.0 days | 99.98% | 0.5 (≈ 1.08 nM) | 1.4 (≈ 3.03 nM) | – | – |
| COC(=O)c1ccc(C2(c3ccc(C(=O)OC)c(C(=O)OC)c3)OOC3(O2)C2CC4CC(C2)CC3C4)cc1C(=O)OC (stereo not shown) [OZ106, Adamantane-2-spiro-3′-5′,5′-bis[3′,4′-di(methoxycarbonyl)phenyl]-1′,2′,4′-trioxolane] | 5.3 days | 0/0/0% | 5.0 days | 0/0/0% | 5.3 days | 0/0/0% | 1.7 (≈ 2.93 nM) | 2.2 (≈ 3.79 nM) | – | – |
| O=C(O)c1nccnc1C(=O)N1CCC2(CC1)OOC1(O2)C2CC3CC(C2)CC1C3 (stereo not shown) [OZ109, Adamantane-2-spiro-3′-8′-[(3′-carboxypyrazinyl)carbonyl]-1′,2′,4′-trioxa-8′-azaspiro[4.5]decane] | 5.7 days | 2% | 5.7 days | 0% | 6.3 days | 24% | 24 (≈ 57.8 nM) | 21 (≈ 50.5 nM) | – | – |
| CCOC(=O)N1C2CCC1CC1(C2)OOC2(O1)C1CC3CC(C1)CC2C3 (stereo not shown) [OZ110, Adamantane-2-spiro-3′-1′,2′,4′-trioxolane-5′-spiro-3″-8″-ethoxycarbonyl-8″-azabicyclo[3.2.1]octane] | 6.7 days | 50% | 5.3 days | 0% | 7.7 days | 97.97% | 2.1 (≈ 5.78 nM) | 5.3 (≈ 14.6 nM) | – | – |
| O=C(O)COCC(=O)N1CCC2(CC1)OOC1(O2)C2CC3CC(C2)CC1C3 (stereo not shown) [OZ112, Adamantane-2-spiro-3′-8′-[(carboxymethoxy)acetyl]-1′,2′,4′-trioxa-8′-azaspiro[4.5]decane] | 5.7 days | 6% | 5.7 days | 0% | 6.3 days | 36% | > 10 | > 10 | – | – |
| O=S(=O)(c1cccc2cccnc12)N1CCC2(CC1)OOC1(O2)C2CC3CC(C2)CC1C3 (stereo not shown) [OZ114, Adamantane-2-spiro-3′-8′-(8′-quinolinesulfonyl)-1′,2′,4′-trioxa-8′-azaspiro[4.5]decane] | 5.7 days | 0% | 6.0 days | 0% | 8.7 days | 99.64% | 2.2 (≈ 4.82 nM) | 3.7 (≈ 8.1 nM) | – | – |
| CCCCCCCCS(=O)(=O)N1CCC2(CC1)OOC1(O2)C2CC3CC(C2)CC1C3 (stereo not shown) [OZ115, Adamantane-2-spiro-3′-8′-(1′-octanesulfonyl)-1′,2′,4′-trioxa-8′-azaspiro[4.5]decane] | 6.3 days | 33% | 5.7 days | 0% | 7.3 days | 97% | 6.9 (≈ 15.6 nM) | 11 (≈ 24.9 nM) | – | – |
| O=C(NO)[C@H]1CC[C@]2(CC1)OOC1(O2)C2CC3CC(C2)CC1C3 (stereo partly shown) [OZ116] | 7.7 days | 97% | 8.3 days | 96% | 8.0 days | 96% | 3.3 (≈ 10.2 nM) | 4.2 (≈ 13 nM) | – | – |
| NCC1(c2ccccc2)CCC2(CC1)OOC1(O2)C2CC3CC(C2)CC1C3 (stereo not shown) [OZ117] | 7.0 days | 95% | 7.7 days | 96% | 8.7 days | 99.94% | 1.2 (≈ 3.25 nM) | 2.1 (≈ 5.68 nM) | – | – |
| CC(=O)OC[C@H]1CC[C@]2(CC1)OOC1(O2)C2CC3CC(C2)CC1C3 (stereo partly shown) [OZ118] | 7.0 days | 99.0% | 8.0 days | 98% | 8.3 days | 99.57% | – | – | 0.24 (≈ 0.713 nM) | 1 (≈ 2.97 nM) |
